Counter-ions that a name gives are not always drawn.
target: T1, human NCX1 (Homo sapiens, UniProt P32418); test: NCX1 inhibition, reverse mode (Ca2+ influx into cells), FLIPR Fluo-4 assay; format: cell-based; details: NCX1 reverse mode; at 30 μM; read-out: Inhibition in % at 30 μM (NCX1rv; IC50 value not determined)
T1 construct: expressed in transfected cells
Procedure, shortened: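 Max−min Fluo-4 fluorescence (520 nm, FLIPR, 240 points at 2 s) after 20 µM final gramicidin, which drives Na+ loading and reverse-mode Ca2+ entry, gave % inhibition and IC50. Test compound was preincubated 45 min at 16 °C with Fluo-4-loaded CHO cells stably expressing human NCX1, in pH 7.4 buffer containing 3.5 mM CaCl2 and probenecid.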

inhibition at 30 µM [%]	Compound
38	O=C(O)CNC(=O)c1cnc(Oc2ccc3c(c2)CCC(c2cccnc2)O3)s1 (stereo not shown) [compound 260]
38	CC(C)c1ccc(NC(=O)c2cnc(Oc3ccc4c(c3)CC[C@@H](c3ccccc3)O4)s2)cc1 [compound 280]

same assay, conditions: inhibition of NCX1 in reverse mode (Ca2+ influx into cells); read-out: NCX1rv IC50

IC50 [nM]	Compound
1500	CCOC(=O)C(CNC(=O)c1cnc(Oc2ccc3c(c2)CC[C@@H](c2ccccc2)O3)s1)CC(C)C (stereo partly shown) [compound 230]
1500	COC(=O)C(C)(CC(C)C)NC(=O)c1cnc(Oc2ccc3c(c2)CC[C@@H](c2ccccc2)O3)s1 (stereo partly shown) [compound 231]
1500	Cc1ccc(C2CCc3cc(Oc4ncc(C(=O)NCc5ccno5)s4)ccc3O2)cn1 (stereo not shown) [compound 232]
800	CC(Cc1ccccc1)(NC(=O)c1cnc(Oc2ccc3c(c2)CC[C@@H](c2ccccc2)O3)s1)C(=O)O (stereo partly shown) [compound 233]
1000	CC1(C)C[C@@H](C(=O)O)N(C(=O)c2cnc(Oc3ccc4c(c3)CC[C@@H](c3ccccc3)O4)s2)C1 [compound 234]
500	CC1CN(C(=O)c2cnc(Oc3ccc4c(c3)CC[C@@H](c3ccccc3)O4)s2)CC1C(=O)O (stereo partly shown) [compound 235]
1600	CC(C)C[C@H](NC(=O)c1cnc(Oc2ccc3c(c2)CC[C@@H](c2ccccc2)O3)s1)[C@@H](O)C(=O)O [compound 236]
800	CC(C)C[C@@H](NC(=O)c1cnc(Oc2ccc3c(c2)CC[C@@H](c2ccccc2)O3)s1)C(=O)O [compound 237]
300	CC(C)CC(CNC(=O)c1cnc(Oc2ccc3c(c2)CC[C@@H](c2ccccc2)O3)s1)C(=O)O (stereo partly shown) [compound 238]
2400	CC1(C(=O)O)CCN(C(=O)c2cnc(Oc3ccc4c(c3)CC[C@@H](c3ccccc3)O4)s2)C1 (stereo partly shown) [compound 239]
1100	O=C(O)C[C@H](O)[C@H](CC1CCCCC1)NC(=O)c1cnc(Oc2ccc3c(c2)CC[C@@H](c2ccccc2)O3)s1 [compound 240]
600	CC(C)C[C@H](NC(=O)c1cnc(Oc2ccc3c(c2)CC[C@@H](c2ccccc2)O3)s1)C(=O)O [compound 241]
700	CC(C)CC(C)(NC(=O)c1cnc(Oc2ccc3c(c2)CC[C@@H](c2ccccc2)O3)s1)C(=O)O (stereo partly shown) [compound 242]
600	O=C(N[C@@H](Cc1ccccc1)C(=O)O)c1cnc(Oc2ccc3c(c2)CC[C@@H](c2ccccc2)O3)s1 [compound 244]
100	COC(=O)CNCc1cnc(Oc2ccc3c(c2)CC[C@@H](c2ccccc2)O3)s1 [compound 245]
600	O=C(O)CNCc1cnc(Oc2ccc3c(c2)CC[C@@H](c2ccccc2)O3)s1 [compound 246]
700	O=C(NCc1ccnc(Cl)c1)c1cnc(Oc2ccc3c(c2)CCC(c2cncc(F)c2)O3)s1 (stereo not shown) [compound 247]
800	O=C(NCc1ccno1)c1cnc(Oc2ccc3c(c2)CCC(c2cncc(F)c2)O3)s1 (stereo not shown) [compound 248]
1400	O=C(NCCO)c1cnc(Oc2ccc3c(c2)CCC(c2cccnc2)O3)s1 (stereo not shown) [compound 249]
1200	COC(=O)CNC(=O)c1cnc(Oc2ccc3c(c2)CCC(c2cccnc2)O3)s1 (stereo not shown) [compound 250]
1100	O=C(N[C@H](CO)c1ccccc1)c1cnc(Oc2ccc3c(c2)CCC(c2cccnc2)O3)s1 (stereo partly shown) [compound 251]
3200	O=C(NC(CCO)C1CC1)c1cnc(Oc2ccc3c(c2)CCC(c2cccnc2)O3)s1 (stereo not shown) [compound 252]
600	O=C(NCCO)c1cnc(Oc2ccc3c(c2)CCC(c2cncc(F)c2)O3)s1 (stereo not shown) [compound 253]

IC50 [nM]	Compound
400	CO[C@H]1CNC[C@@H]1NC(=O)c1cnc(Oc2ccc3c(c2)CC[C@@H](c2ccccc2)O3)s1 [compound 254]
300	N[C@H]1C[C@@H]1NC(=O)c1cnc(Oc2ccc3c(c2)CC[C@@H](c2ccccc2)O3)s1 [compound 256]
400	NC1CC(NC(=O)c2cnc(Oc3ccc4c(c3)CC[C@@H](c3ccccc3)O4)s2)C1 (stereo partly shown) [compound 257]
200	OCCN(CCO)Cc1cnc(Oc2ccc3c(c2)CC[C@@H](c2ccccc2)O3)s1 [compound 258]
1800	O=C(c1cnc(Oc2ccc3c(c2)CCC(c2cccnc2)O3)s1)N1CCC[C@H]1CO (stereo partly shown) [compound 259]
3100	CC[C@H](C)[C@H](NC(=O)c1cnc(Oc2ccc3c(c2)CCC(c2cccnc2)O3)s1)C(=O)OC (stereo partly shown) [compound 261]
800	CCOC(=O)[C@H](Cc1ccccc1)NC(=O)c1cnc(Oc2ccc3c(c2)CCC(c2cccnc2)O3)s1 (stereo partly shown) [compound 262]
25200	CCOC(=O)[C@@H](NC(=O)c1cnc(Oc2ccc3c(c2)CCC(c2cccnc2)O3)s1)C(C)C (stereo partly shown) [compound 263]
3100	COC(=O)[C@@H](NC(=O)c1cnc(Oc2ccc3c(c2)CCC(c2cccnc2)O3)s1)C(C)(C)C (stereo partly shown) [compound 264]
7300	NC1CC(NC(=O)c2cnc(Oc3ccc4c(c3)CCC(c3cccnc3)O4)s2)C1 (stereo not shown) [compound 265, hydrochloride]
100	OCCNCc1cnc(Oc2ccc3c(c2)CC[C@@H](c2ccccc2)O3)s1 [compound 266]
600	N[C@H]1C[C@@H]1NC(=O)c1cnc(Oc2ccc3c(c2)CCC(c2cccnc2)O3)s1 (stereo partly shown) [compound 267, hydrochloride]
2500	O=C(NC1C2CNCC21)c1cnc(Oc2ccc3c(c2)CCC(c2cccnc2)O3)s1 (stereo not shown) [compound 268]
2600	CO[C@H]1CNC[C@@H]1NC(=O)c1cnc(Oc2ccc3c(c2)CCC(c2cccnc2)O3)s1 (stereo partly shown) [compound 269, hydrochloride]
12500	CC[C@H](C)[C@H](NC(=O)c1cnc(Oc2ccc3c(c2)CCC(c2cccnc2)O3)s1)C(=O)O (stereo partly shown) [compound 270]
12100	O=C(N[C@@H](Cc1ccccc1)C(=O)O)c1cnc(Oc2ccc3c(c2)CCC(c2cccnc2)O3)s1 (stereo partly shown) [compound 271]
15600	CC(C)[C@H](NC(=O)c1cnc(Oc2ccc3c(c2)CCC(c2cccnc2)O3)s1)C(=O)O (stereo partly shown) [compound 272]
10100	CC(C)(C)[C@H](NC(=O)c1cnc(Oc2ccc3c(c2)CCC(c2cccnc2)O3)s1)C(=O)O (stereo partly shown) [compound 273]
400	Cc1cc(CNC(=O)c2cnc(Oc3ccc4c(c3)CC[C@@H](c3ccccc3)O4)s2)ccn1 [compound 274, hydrochloride]
400	CCOC(=O)[C@H](C)NC(=O)c1cnc(Oc2ccc3c(c2)CCC(c2cccnc2)O3)s1 (stereo partly shown) [compound 276]
2000	O=C(NCc1ccno1)c1cnc(Oc2ccc3c(c2)CCC(c2ccc(Cl)nc2)O3)s1 (stereo not shown) [compound 277, hydrochloride]
1300	O=C(NCc1ccnc(Cl)c1)c1cnc(Oc2ccc3c(c2)CCC(c2ccc(Cl)nc2)O3)s1 (stereo not shown) [compound 278, hydrochloride]
600	CCCNC(=O)c1cnc(Oc2ccc3c(c2)CC[C@@H](c2ccccc2)O3)s1 [compound 281]

IC50 [nM]	Compound
1200	CC1(C)CN(C(=O)c2cnc(Oc3ccc4c(c3)CC[C@@H](c3ccccc3)O4)s2)CCN1 [compound 282]
600	O=C(c1cnc(Oc2ccc3c(c2)CC[C@@H](c2ccccc2)O3)s1)N1CC[C@H]2CNC[C@H]21 [compound 283, hydrochloride]
200	NC1C[C@@H]1NC(=O)c1cnc(Oc2ccc3c(c2)CC[C@@H](c2ccccc2)O3)s1 (stereo partly shown) [compound 284, hydrochloride]
900	CN[C@H]1CN(C(=O)c2cnc(Oc3ccc4c(c3)CC[C@@H](c3ccccc3)O4)s2)CC[C@H]1C [compound 285, hydrochloride]
1500	CN(C)CC1CN(C(=O)c2cnc(Oc3ccc4c(c3)CC[C@@H](c3ccccc3)O4)s2)CCO1 (stereo partly shown) [compound 286]
500	O=C(NCC1CCCCN1)c1cnc(Oc2ccc3c(c2)CC[C@@H](c2ccccc2)O3)s1 (stereo partly shown) [compound 287]
400	O=C(c1cnc(Oc2ccc3c(c2)CC[C@@H](c2ccccc2)O3)s1)N1CCCCC1 [compound 288]
600	O=C(c1cnc(Oc2ccc3c(c2)CC[C@@H](c2ccccc2)O3)s1)N1CCC2(CCCNC2)C1 (stereo partly shown) [compound 290]
400	NCC1CCCN1C(=O)c1cnc(Oc2ccc3c(c2)CC[C@@H](c2ccccc2)O3)s1 (stereo partly shown) [compound 291]
300	NC1CCN(C(=O)c2cnc(Oc3ccc4c(c3)CC[C@@H](c3ccccc3)O4)s2)C1 (stereo partly shown) [compound 292]
1000	NC[C@@H]1[C@H]2CC[C@H](C2)[C@H]1NC(=O)c1cnc(Oc2ccc3c(c2)CC[C@@H](c2ccccc2)O3)s1 [compound 293]
200	COC(=O)CNC(=O)c1cnc(Oc2ccc3c(c2)CCC(c2ccccc2)O3)s1 (stereo not shown) [compound 294]
400	O=C(NCCO)c1cnc(Oc2ccc3c(c2)CCC(c2ccccc2)O3)s1 (stereo not shown) [compound 295]
400	Cc1noc(C)c1CCC(=O)NCc1cnc(Oc2ccc3c(c2)CC[C@@H](c2ccccc2)O3)s1 [compound 296]
1100	Cc1nn(C)c(C)c1CCC(=O)NCc1cnc(Oc2ccc3c(c2)CC[C@@H](c2ccccc2)O3)s1 [compound 297]
600	O=C(c1cnc(Oc2ccc3c(c2)CCC(c2ccccc2)O3)s1)N1CC[C@@H](O)C1 (stereo partly shown) [compound 298]
200	Cc1ccccc1C1CCc2cc(Oc3ncc(C(=O)N4CC[C@@H](O)C4)s3)ccc2O1 (stereo partly shown) [compound 300]
6900	CS(=O)(=O)c1ccc(C2CCc3cc(Oc4ncc(C(=O)NCc5ccno5)s4)ccc3O2)cc1 (stereo not shown) [compound 301]
400	NCC(=O)NCc1cnc(Oc2ccc3c(c2)CC[C@@H](c2ccccc2)O3)s1 [compound 302]
300	C[C@H](N)C(=O)NCc1cnc(Oc2ccc3c(c2)CC[C@@H](c2ccccc2)O3)s1 [compound 303]
1900	N[C@@H](Cc1ccccc1)C(=O)NCc1cnc(Oc2ccc3c(c2)CC[C@@H](c2ccccc2)O3)s1 [compound 304]
300	O=C(NCC(O)CO)c1cnc(Oc2ccc3c(c2)CCC(c2ccccc2)O3)s1 (stereo not shown) [compound 305]

From patent US20140243292A1, “SUBSITUTED 2-(CHROMAN-6-YLOXYL)-THIAZOLES AND THEIR USE AS PHARMACEUTICALS” (Sanofi, priority 2011, published 2014)
